For experiment [1], the target named is T1, Neutrophil elastase (Homo sapiens) (UniProt P08246).
T1 sequence (whole entry): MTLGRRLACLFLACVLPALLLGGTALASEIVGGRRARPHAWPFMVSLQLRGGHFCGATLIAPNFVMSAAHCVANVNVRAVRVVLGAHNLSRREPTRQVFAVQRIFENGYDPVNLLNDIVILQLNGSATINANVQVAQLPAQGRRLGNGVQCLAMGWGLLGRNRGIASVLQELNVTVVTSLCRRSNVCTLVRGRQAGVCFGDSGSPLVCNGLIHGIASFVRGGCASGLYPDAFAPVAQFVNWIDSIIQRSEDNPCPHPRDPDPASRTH
As to the kind of experiment: Compound was tested for the inhibition of human leukocyte elastase (HLE) by ratio of Kobs to that of KI.

For experiment [2], the target named is T1, Neutrophil elastase (Homo sapiens). The experiment in a line: Compound was tested for the inhibition of human leukocyte elastase (HLE) by ratio of Kobs to that of KI; Insoluble.
Experiment [3] has as its target T2, Neutrophil elastase (Homo sapiens, UniProt P08246).
T2 sequence (P08246 whole entry): T1 sequence (whole entry)
The experiment in a line: Compound was tested for the inhibition of human leukocyte elastase (HLE).

Experimental findings from ChEMBL document CHEMBL1126225, “Potential mechanism-based inhibitors of proteolytic enzymes” (Bioorg Med Chem Lett, 1992) are described below.

For `CC(C)C[C@H](NC(=O)OCc1ccccc1)C(=O)CN1C(=O)c2ccccc2S1(=O)=O`, in experiment [1], the K obs / 1 amounted to 420 M⁻¹ s⁻¹.

Regarding `CC(C)C[C@H](NC(=O)OCc1ccccc1)C(=O)CN1C(=O)c2ccccc2C1=O`, the “K obs / 1” value in experiment [2] is listed as “Insoluble”.

Consider `CC(C)Cc1ccc(C(C)C(=O)CN2C(=O)c3ccccc3S2(=O)=O)cc1` (stereo not drawn), for which, in experiment [1], the K obs / 1 came out at 160 M⁻¹ s⁻¹.

`O=C(CN1C(=O)c2ccccc2S1(=O)=O)OCc1ccccc1`: the K obs / 1 in experiment [1] was determined as 4 M⁻¹ s⁻¹.

Take `CC(C)Cc1ccc(C(C)C(=O)CN2C(=O)CC(Cc3ccccc3)C2=O)cc1` (stereo not drawn): the K obs / 1 in experiment [1] came out at 45 M⁻¹ s⁻¹.

The molecule `CC(C)C[C@H](N)C(=O)CN1C(=O)c2ccccc2C1=O` had a Ki in experiment [3] of 17.5 µM.

Consider `CC(C)Cc1ccc(C(C)C(=O)CN2C(=O)CC(CC(C)C)C2=O)cc1` (stereo not drawn), for which, in experiment [1], the K obs / 1 turned out to be 16 M⁻¹ s⁻¹.

For `CC(C)C[C@H](NC(=O)OCc1ccccc1)C(=O)CN1C(=O)CC(Cc2ccccc2)C1=O` (stereo partly drawn), in experiment [1], the K obs / 1 turned out to be 3 M⁻¹ s⁻¹.

Broadly, the Ki is the equilibrium dissociation constant of an inhibitor or competing ligand from its target.
